What was measured:
[1] = biological target: T1, BCR-ABL protein (Homo sapiens, UniProt P00519+P11274); experiment: Protein knockdown by western blot in K562 cells; format: cell-based; settings: 6 h
T1 construct: examined for their activity to degrade BCR-ABL in K562 cells for 6 h; BCR (fusion partner, P11274, N-terminal part); endogenous in cells; host or cells: K562
Description: Cells were collected and lysed in a lysis buffer (0.5% Triton X-100, 0.01 M Tris-HCl (pH 7.5), 0.15 M NaCl, Complete Mini protease inhibitor cocktail (Roche Applied Science, Indianapolis, IL, USA) and PhosStop phosphatase inhibitor cocktail (Roche Applied Science)). Protein concentrations were measured by the BCA method (Thermo Fisher Scientific) and an equal amount of protein lysate was separated by SDS-PAGE, transferred to polyvinylidene difluoride membranes (Merck Millipore) and analyzed by western blot using an appropriate antibody. The immunoreactive proteins were visualized using Clarity Western ECL substrate (Bio-Rad, Hercules, CA, USA) and their light emission was quantified with a LAS-3000 lumino-image analyzer (Fuji, Tokyo, Japan).

[2] = biological target: T2, ABL1 (Homo sapiens, UniProt P00519); experiment: TR-FRET binding assay, ABL1 (BODIPY-dasatinib probe); settings: concentration required to inhibit the probe binding to ABL by 50%, read-out: Binding affinity IC50 ABL
T2 construct: the His-tagged ABL1 protein (full length, P3049) were from Life Technologies; purchased Life Technologies P3049
T2 sequence (P00519 whole entry): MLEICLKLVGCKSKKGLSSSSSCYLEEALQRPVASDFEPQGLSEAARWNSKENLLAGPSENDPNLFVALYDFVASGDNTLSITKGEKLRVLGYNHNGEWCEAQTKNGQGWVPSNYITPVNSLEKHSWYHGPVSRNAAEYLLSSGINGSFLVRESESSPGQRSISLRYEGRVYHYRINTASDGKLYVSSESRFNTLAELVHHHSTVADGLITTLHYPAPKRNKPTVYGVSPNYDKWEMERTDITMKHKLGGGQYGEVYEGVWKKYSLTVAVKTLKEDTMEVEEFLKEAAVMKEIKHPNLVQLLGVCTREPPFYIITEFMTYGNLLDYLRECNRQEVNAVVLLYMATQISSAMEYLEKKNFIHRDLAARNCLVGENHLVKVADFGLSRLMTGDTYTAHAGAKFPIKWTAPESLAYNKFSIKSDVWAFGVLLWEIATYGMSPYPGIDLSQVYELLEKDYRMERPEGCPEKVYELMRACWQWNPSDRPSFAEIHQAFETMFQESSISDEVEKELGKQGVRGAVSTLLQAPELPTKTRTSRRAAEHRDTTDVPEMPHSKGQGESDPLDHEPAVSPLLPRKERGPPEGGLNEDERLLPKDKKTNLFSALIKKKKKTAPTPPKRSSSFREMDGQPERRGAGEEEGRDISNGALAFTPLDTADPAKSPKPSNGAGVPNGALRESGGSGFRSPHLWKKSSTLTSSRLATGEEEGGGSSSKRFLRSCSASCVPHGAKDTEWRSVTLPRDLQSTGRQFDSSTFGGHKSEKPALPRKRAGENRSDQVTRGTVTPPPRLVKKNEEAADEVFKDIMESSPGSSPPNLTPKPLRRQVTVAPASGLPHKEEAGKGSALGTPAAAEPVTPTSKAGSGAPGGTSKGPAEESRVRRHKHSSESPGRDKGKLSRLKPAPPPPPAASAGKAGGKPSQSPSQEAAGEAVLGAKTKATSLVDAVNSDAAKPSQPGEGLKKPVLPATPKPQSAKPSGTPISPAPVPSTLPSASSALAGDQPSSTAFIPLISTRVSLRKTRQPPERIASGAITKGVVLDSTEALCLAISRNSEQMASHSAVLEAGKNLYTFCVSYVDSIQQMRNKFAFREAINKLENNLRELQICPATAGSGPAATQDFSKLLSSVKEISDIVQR
Description: The TR-FRET assay was carried out using 384-well white flat-bottom plates (Greiner Bio-One) and the signal was measured using an EnVision Multilabel Plate Reader (PerkinElmer, Waltham, MA, USA).
(§1) The half maximal inhibitory concentration (IC50) of test compounds was calculated by fitting the data with the logistic equation using GraphPad Prism 5 (GraphPad Software, Inc., La Jolla, CA, USA) or XLfit (IDBS, Guildford, UK).
Before addition to the assay plate, 3-fold concentrations of the His-ABL1 protein, Tb-SA and the biotinylated anti-His antibody were mixed in the assay buffer and incubated for over 1 h at room temperature. Several concentrations of test inhibitors dissolved in the assay buffer were dispensed in the assay plate. […] The plate was incubated for 30 min at room temperature and the TR-FRET signal was measured using the EnVision Multilabel Plate Reader.

[3] = system: KU812 cells; experiment: WST cell growth inhibition, KU812; format: cell-based; settings: Homo sapiens, 48 h, WST assay, means ± SD (n = 3)
Description: (§2) Human CML (K562 and KU812 cells), acute T-lymphoblast leukemia (MOLT-4 cell), and T cell leukemia (Jurkat cell) were cultured in Roswell Park Memorial Institute-1640 medium (Sigma-Aldrich, St. Louis, MO, USA) containing 10% fetal bovine serum (Thermo Fisher Scientific, Waltham, MA, USA) and 50 μg/ml kanamycin (Sigma-Aldrich). KU812 cells were obtained from Japanese Collection of Research Bioresources (JCRB, Osaka, Japan) Cell Bank (JCRB0104)[58].
(§3) Cell viability was determined using water-soluble tetrazolium WST-8 (4-[3-(2-methoxy-4-nitrophenyl)-2-(4-nitrophenyl)-2H-5-tetrazolio]-1,3-benzene disulfonate) for the spectrophotometric assay and conducted according to the manufacturer’s instructions (Dojindo, Tokyo, Japan). Cells were seeded at a concentration of 5 × 10^3 cells per well in a 96-well culture plate, and treated with the indicated compounds for 48 h. The WST-8 reagent was added, and the cells were incubated for 0.5 h at 37 °C in a humidified atmosphere of 5% CO2. The absorbance at 450 nm of the medium was measured using the EnVision Multilabel Plate Reader.

[4] = system: MOLT-4 cells; experiment: WST cell growth inhibition, MOLT-4 (BCR-ABL negative); format: cell-based; settings: Homo sapiens, MOLT4 cells, 48 h, WST assay, means ± SD (n = 3)
[5] = system: K562 cells; experiment: WST cell growth inhibition, K562; format: cell-based, Human; settings: 48 h, WST assay; for IC50: Homo sapiens, means ± SD (n = 3)
Description: as §2, §3

[6] = biological target: T3, cIAP2 (BIR3) (Homo sapiens, UniProt Q13489); experiment: TR-FRET IAP/Smac peptide interaction assay, cIAP2; settings: FITC-Smac probe, read-out: Binding affinity IC50 cIAP2
T3 construct: cIAP2 (BIR3, Gln238-Ser349) proteins were expressed in E. coli; made in house; host or cells: E. coli
T3 sequence (Q13489 238-349): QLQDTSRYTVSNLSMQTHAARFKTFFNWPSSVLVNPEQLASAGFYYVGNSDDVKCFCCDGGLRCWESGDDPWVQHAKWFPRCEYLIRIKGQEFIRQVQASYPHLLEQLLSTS
Description: The TR-FRET assay was carried out using 384-well white flat-bottom plates (Greiner Bio-One) and the signal was measured using an EnVision Multilabel Plate Reader (PerkinElmer, Waltham, MA, USA). The solution in each well was excited with a laser (λ = 337 nm) reflected by a dichroic mirror (D400/D505 (Perkin Elmer) and fluorescence from terbium (Tb) and BODIPY or FITC was detected through two emission filters (CFP 486 (Perkin Elmer) for Tb and Emission 515 (Perkin Elmer) for BODIPY and FITC). The assay buffer used in this study was composed of 50 mM HEPES (pH 7.2–7.5), 10 mM MgCl2, 1 mM EGTA, 0.1 mM DTT and 0.01% (v/v) Brij^(R) 35. All assays were carried out at room temperature in triplicate or quadruplicate formats.
as §1
His-IAP proteins (XIAP, cIAP1 or cIAP2), FITC-Smac, Tb-SA and the biotinylated anti-His antibody (Life Technologies) were mixed in the assay buffer and incubated for over 1 h at room temperature before addition to the assay plate. […] After 1 h incubation at room temperature, the TR-FRET signal was measured using the EnVision Multilabel Plate Reader. […]

T1 sequence (P11274+P00519 fused): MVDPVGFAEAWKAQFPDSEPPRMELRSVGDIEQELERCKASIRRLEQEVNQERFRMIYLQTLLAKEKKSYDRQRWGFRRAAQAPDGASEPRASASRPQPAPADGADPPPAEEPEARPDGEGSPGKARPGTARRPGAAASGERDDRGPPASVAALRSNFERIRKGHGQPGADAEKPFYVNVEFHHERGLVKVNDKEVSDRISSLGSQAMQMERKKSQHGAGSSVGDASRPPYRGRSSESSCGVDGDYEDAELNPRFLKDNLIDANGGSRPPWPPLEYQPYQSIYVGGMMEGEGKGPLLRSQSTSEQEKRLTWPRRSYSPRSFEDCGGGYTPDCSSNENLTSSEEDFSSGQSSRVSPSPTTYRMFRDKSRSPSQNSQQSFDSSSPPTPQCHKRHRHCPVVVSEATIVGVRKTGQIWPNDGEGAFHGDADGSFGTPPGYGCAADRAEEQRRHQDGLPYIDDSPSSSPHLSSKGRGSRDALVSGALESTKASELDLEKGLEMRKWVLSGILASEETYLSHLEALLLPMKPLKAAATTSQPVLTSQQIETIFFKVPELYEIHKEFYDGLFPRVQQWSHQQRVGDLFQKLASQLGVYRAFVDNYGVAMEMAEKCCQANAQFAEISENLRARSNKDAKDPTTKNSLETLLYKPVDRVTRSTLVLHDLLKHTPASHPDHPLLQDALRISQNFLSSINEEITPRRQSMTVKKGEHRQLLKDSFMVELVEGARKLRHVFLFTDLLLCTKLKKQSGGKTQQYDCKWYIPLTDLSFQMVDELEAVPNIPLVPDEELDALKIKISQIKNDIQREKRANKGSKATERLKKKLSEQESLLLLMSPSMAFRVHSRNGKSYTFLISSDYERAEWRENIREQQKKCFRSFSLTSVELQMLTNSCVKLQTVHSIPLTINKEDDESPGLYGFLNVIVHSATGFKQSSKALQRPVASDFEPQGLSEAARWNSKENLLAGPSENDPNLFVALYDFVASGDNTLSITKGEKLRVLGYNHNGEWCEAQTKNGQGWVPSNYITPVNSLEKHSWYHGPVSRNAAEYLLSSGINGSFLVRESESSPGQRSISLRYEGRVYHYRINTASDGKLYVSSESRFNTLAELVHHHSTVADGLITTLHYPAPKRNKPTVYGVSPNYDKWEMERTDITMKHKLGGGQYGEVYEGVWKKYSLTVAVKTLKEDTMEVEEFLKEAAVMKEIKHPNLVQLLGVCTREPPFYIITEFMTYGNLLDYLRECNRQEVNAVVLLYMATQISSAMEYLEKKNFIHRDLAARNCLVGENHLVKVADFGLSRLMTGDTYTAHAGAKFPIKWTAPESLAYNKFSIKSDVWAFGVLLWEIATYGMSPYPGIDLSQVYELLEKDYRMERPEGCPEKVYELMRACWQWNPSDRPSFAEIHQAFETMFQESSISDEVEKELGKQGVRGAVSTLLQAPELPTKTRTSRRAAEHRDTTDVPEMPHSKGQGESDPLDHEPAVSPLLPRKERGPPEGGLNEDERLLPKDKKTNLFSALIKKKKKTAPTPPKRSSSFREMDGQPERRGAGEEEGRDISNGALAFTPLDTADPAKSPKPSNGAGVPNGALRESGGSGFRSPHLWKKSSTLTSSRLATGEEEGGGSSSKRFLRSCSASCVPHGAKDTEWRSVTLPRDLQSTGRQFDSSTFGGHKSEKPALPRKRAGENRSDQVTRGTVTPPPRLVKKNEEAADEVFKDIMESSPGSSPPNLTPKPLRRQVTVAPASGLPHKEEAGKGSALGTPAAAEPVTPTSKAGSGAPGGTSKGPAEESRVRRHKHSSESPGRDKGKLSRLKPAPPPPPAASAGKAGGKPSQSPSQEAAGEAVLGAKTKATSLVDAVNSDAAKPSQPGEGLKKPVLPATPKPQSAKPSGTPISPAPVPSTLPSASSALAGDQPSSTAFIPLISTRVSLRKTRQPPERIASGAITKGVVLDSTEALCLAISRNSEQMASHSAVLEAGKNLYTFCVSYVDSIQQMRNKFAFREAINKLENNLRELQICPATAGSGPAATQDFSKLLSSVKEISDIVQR

| BCR-ABL, cIAP1 and XIAP protein levels [1] | knockdown activity against the BCR-ABL protein ([1]; 1-300 nM) | IC50 [2] [nM] | IC50 [4] [nM] | IC50 [5] [nM] | IC50 [6] [nM] | Compound | IC50 [3] [nM] | suppression of K562 cell growth (comparison) [5] |
| --- | --- | --- | --- | --- | --- | --- | --- | --- |
| reduced | effective knockdown activity | 0.54 | 1720 ± 64.9 | 8.6 | 12 | CN[C@@H](C)C(=O)N[C@H](C(=O)N1CCC[C@H]1c1nc(C(=O)c2cccc(OCCOCCOCCOCC(=O)N3CCN(c4cc(Nc5ncc(C(=O)Nc6c(C)cccc6Cl)s5)nc(C)n4)CC3)c2)cs1)C1CCCCC1 [DAS-IAP] | 8.97 ± 0.99 | more potent suppression of K562 cell growth than DAS-VHL |
| did not reduce | – | < 0.24 | 1900 ± 108 | 3.93 | > 1000 | CN[C@@H](C)C(=O)N(C)[C@H](C(=O)N1CCC[C@H]1c1nc(C(=O)c2cccc(OCCOCCOCCOCC(=O)N3CCN(c4cc(Nc5ncc(C(=O)Nc6c(C)cccc6Cl)s5)nc(C)n4)CC3)c2)cs1)C1CCCCC1 [DAS-meIAP] | 3.57 ± 0.22 | – |

From PMC6131351, “Pharmacological difference between degrader and inhibitor against oncogenic BCR-ABL kinase” (Scientific Reports, 2018)
